Laboratory results from patent publication US20250051355A1, “COMPOUNDS, COMPOSITIONS, AND METHODS” (ACONCAGUA BIO, INC., priority 2023, published 2025).

Target: human calcitonin receptor (CTR) and RAMP3 (AMY3) (Homo sapiens, UniProt O60896+P30988)
Experiment: Amylin Receptor cAMP Assay I
Format: cell-based
Conditions: COS-7/AMY3 cells, cAMP Hi-range Kit, read-out: Amylin Receptor cAMP Stimulation Activity: EC50
Excerpt: Amylin Receptor cAMP Assay I
AMYRs are heterodimers of the class B calcitonin (CT) G-protein-coupled receptor (CTR) and receptor activity-modifying proteins (RAMPs). All three RAMPs can interact with the CTR and form AMY1, AMY2, AMY3 with RAMP1, RAMP2 and RAMP3, respectively. Like other class B1 GPCRs, the CT receptor family is canonically coupled to Gs-mediated cAMP production, and measurement of cAMP accumulation has been the primary assay used to determine peptide selectivity and potency.
To optimize functional activity directed toward Gas coupling, COS-7 cells were stably transfected with human calcitonin receptor (CTR) and RAMP3, simultaneously. 100×concentration of compound working solutions were prepared (Agilent Technologies Bravo) with 4-fold serial dilution in 384-well Echo LDV plate (Labcyte, Cat #LP-0200). 100 nL/well 100× concentration of compound working solutions were moved to 384-well white low volume plate (Greiner, Cat #784075) using Labcyte ECHO550. 1×10^5 cells/mL COS-7/CTR or COS-7/AMY3 (HD Biosciences) cell suspensions prepared with assay buffer [DPBS containing 0.5 mM IBMX (Sigma, Cat #15879) and 0.1% BSA (GENVIEW, Cat #FAO16-100 g)], 10 μL cell suspensions were added to each well of previous generated assay plate which already contains 100 nL compound at 100× concentration using ThermoFisher Multidrop Combi (1000 cells/well). Seal the plate and incubate at 37° C. with 5% CO2 for 30 min.
After incubation, the cAMP assay signal was generated using cAMP Hi-range Kit (Cisbio). 5 μL cAMP-d2 working solution was added to each well, followed by 5 μL Anti-cAMP antibody-cryptate working solution which was added to each well using ThermoFisher Multidrop Combi. The samples were then incubated at room temperature for 1 hour protected from light. the fluorescence was read at 665 and 615 nm with Reader PerkinElmer EnVision.

Sequence of human calcitonin receptor (CTR) and RAMP3 (AMY3) (O60896 24-148): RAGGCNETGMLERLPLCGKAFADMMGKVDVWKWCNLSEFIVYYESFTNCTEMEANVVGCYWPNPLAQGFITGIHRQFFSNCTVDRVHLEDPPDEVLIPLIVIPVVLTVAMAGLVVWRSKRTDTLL
Sequence of human calcitonin receptor (CTR) and RAMP3 (AMY3) (P30988 25-474): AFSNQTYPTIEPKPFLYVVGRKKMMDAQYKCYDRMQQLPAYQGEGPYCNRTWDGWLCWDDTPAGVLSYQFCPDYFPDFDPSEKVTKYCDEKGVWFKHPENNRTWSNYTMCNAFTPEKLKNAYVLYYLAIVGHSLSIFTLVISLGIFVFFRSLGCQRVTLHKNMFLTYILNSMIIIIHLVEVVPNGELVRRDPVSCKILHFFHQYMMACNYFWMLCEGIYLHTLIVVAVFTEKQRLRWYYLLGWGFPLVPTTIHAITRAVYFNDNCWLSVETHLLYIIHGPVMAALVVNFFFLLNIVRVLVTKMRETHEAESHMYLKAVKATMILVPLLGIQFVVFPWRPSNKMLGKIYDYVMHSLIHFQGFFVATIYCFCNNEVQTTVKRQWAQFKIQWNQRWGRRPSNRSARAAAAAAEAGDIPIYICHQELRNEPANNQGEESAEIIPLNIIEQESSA

**Q.** `Cc1nnc(-c2c(CCc3ccccc3)nc3c(c2-c2ccc(C(=O)NCc4ccc(F)c(F)c4)s2)C(=O)N2CCC[C@@H]32)o1` [Compound 5, (S)—N-(3,4-difluorobenzyl)-5-(3-(5-methyl-1,3,4-oxadiazol-2-yl)-5-oxo-2-phenethyl-7,8,9,9a-tetrahydro-5H-pyrido[2,3-a]pyrrolizin-4-yl)thiophene-2-carboxamide] was tested. Which EC50 did it give?
**A.** 0.0675 µM

**Q.** How did the EC50 turn out when `Cc1ccc(CCc2nc3c(c(-c4ccc(C(=O)NCc5ccc(F)c(F)c5)s4)c2-c2nnc(C)o2)C(=O)N2CCC[C@@H]32)nc1` [Compound 6, (S)—N-(3,4-difluorobenzyl)-5-(3-(5-methyl-1,3,4-oxadiazol-2-yl)-2-(2-(5-methylpyridin-2-yl)ethyl)-5-oxo-7,8,9,9a-tetrahydro-5H-pyrido[2,3-a]pyrrolizin-4-yl)thiophene-2-carboxamide] was run?
**A.** 0.674 µM

**Q.** With `Cc1nnc(-c2c(CCc3ccc(F)cn3)nc3c(c2-c2ccc(C(=O)NCc4ccc(F)c(F)c4)s2)C(=O)N2CCC[C@@H]32)o1` [Compound 8, (S)—N-(3,4-difluorobenzyl)-5-(2-(2-(5-fluoropyridin-2-yl)ethyl)-3-(5-methyl-1,3,4-oxadiazol-2-yl)-5-oxo-7,8,9,9a-tetrahydro-5H-pyrido[2,3-a]pyrrolizin-4-yl)thiophene-2-carboxamide] as the molecule, how does the EC50 read?
**A.** 3.59 µM

**Q.** Which EC50 does the source give for `Cc1nnc(-c2c(CCc3ccc(F)cc3)nc3c(c2-c2ccc(C(=O)N[C@@H]4COc5ccccc54)s2)C(=O)N2CCC[C@@H]32)o1` [Compound 10, N—((S)-2,3-dihydrobenzofuran-3-yl)-5-((S)-2-(4-fluorophenethyl)-3-(5-methyl-1,3,4-oxadiazol-2-yl)-5-oxo-7,8,9,9a-tetrahydro-5H-pyrido[2,3-a]pyrrolizin-4-yl)thiophene-2-carboxamide] here?
**A.** 0.0667 µM

**Q.** For `Cc1nnc(-c2c(CCc3ccc(F)cc3)nc3c(c2-c2ccc(C(=O)NC4CC(O)c5ccccc54)s2)C(=O)N2CCC[C@@H]32)o1` (stereo partly drawn) [Compound 11, 5-((S)-2-(4-fluorophenethyl)-3-(5-methyl-1,3,4-oxadiazol-2-yl)-5-oxo-7,8,9,9a-tetrahydro-5H-pyrido[2,3-a]pyrrolizin-4-yl)-N-(3-hydroxy-2,3-dihydro-1H-inden-1-yl)thiophene-2-carboxamide], which EC50 is on record?
**A.** 0.0481 µM

**Q.** Which EC50 does the source give for `Cc1nnc(-c2c(CCc3ccc(F)cc3)nc3c(c2-c2ccc(C(=O)NCc4cncc(F)c4)s2)C(=O)N2CCC[C@@H]32)o1` [Compound 12, (S)-5-(2-(4-fluorophenethyl)-3-(5-methyl-1,3,4-oxadiazol-2-yl)-5-oxo-7,8,9,9a-tetrahydro-5H-pyrido[2,3-a]pyrrolizin-4-yl)-N-((5-fluoropyridin-3-yl)methyl)thiophene-2-carboxamide] here?
**A.** 0.113 µM

**Q.** Which EC50 does the source give for `COc1cccc2c1CC[C@H]2NC(=O)c1ccc(-c2c3c(nc(CCc4ccc(F)cc4)c2-c2nnc(C)o2)[C@@H]2CCCN2C3=O)s1` [Compound 13, N—[(R)-4-methoxy-1-indanyl]-5-((2S)-11-[2-(p-fluorophenyl)ethyl]-10-(5-methyl-1,3,4-oxadiazol-2-yl)-7-oxo-6,12-diazatricyclo[6.4.0.0^2,6]dodeca-1(12),8,10-trien-9-yl}-2-thenamide] here?
**A.** 0.0297 µM

**Q.** Which EC50 does the source give for `Cc1cnc(-c2c(CCc3ccc(F)cc3)nc3c(c2-c2ccc(C(=O)NCc4ccc(F)c(F)c4)s2)C(=O)N2CCC[C@@H]32)o1` [Compound 14, N-(3,4-difluorophenyl)methyl-5-{(2S)-11-[2-(p-fluorophenyl)ethyl]-10-(5-methyl-1,3-oxazol-2-yl)-7-oxo-6,12-diazatricyclo[6.4.0.0^2,6]dodeca-1(8),9,11-trien-9-yl)-2-thenamide] here?
**A.** 0.0126 µM

**Q.** Which EC50 does the source give for `Cc1nnc(-c2c(CCc3ccc(F)cc3)nc3c(c2-c2ccc(C(=O)N[C@@H]4CCc5ccccc54)s2)C(=O)NC[C@H]3C(C)C)o1` [Compound 16, N—((R)-2,3-dihydro-1H-inden-1-yl)-5-((R)-2-(4-fluorophenethyl)-8-isopropyl-3-(5-methyl-1,3,4-oxadiazol-2-yl)-5-oxo-5,6,7,8-tetrahydro-1,6-naphthyridin-4-yl)thiophene-2-carboxamide] here?
**A.** 2.37 µM

**Q.** With `Cc1nnc(-c2c(CCc3ccc(F)cc3)nc3c(c2-c2ccc(C(=O)NCc4ccc(F)c(F)c4)s2)C(=O)N2CCCC[C@@H]32)o1` [Compound 20] as the molecule, how does the EC50 read?
**A.** 0.079 µM

**Q.** `CC(C)c1nnc(-c2c(CCc3ccc(F)cc3)nc3c(c2-c2ccc(C(=O)NCc4ccc(F)c(F)c4)s2)C(=O)N2CCC[C@@H]32)o1` [Compound 21] was tested. Which EC50 did it give?
**A.** 0.037 µM

**Q.** Which EC50 does the source give for `Cc1ccc(CCc2nc3c(c(-c4ccc(C(=O)NCc5ccc(F)c(F)c5)s4)c2-c2nnc(C)o2)C(=O)N2CCC[C@@H]32)cn1` [Compound 22] here?
**A.** 1.13 µM

**Q.** Which EC50 does the source give for `Cc1cnc(-c2c(CCc3ccc(F)cc3)nc3c(c2-c2ccc(C(=O)NCc4ccc(F)c(F)c4)s2)S(=O)(=O)N2CCC[C@@H]32)o1` [Compound 24] here?
**A.** 0.08 µM

**Q.** `Cc1nnc(-c2c(COC3CCCCC3)nc3c(c2-c2ccc(C(=O)NCc4ccc(F)c(F)c4)s2)C(=O)N2CCC[C@@H]32)o1` [Compound 25] was tested. Which EC50 did it give?
**A.** 0.512 µM

**Q.** Which EC50 does the source give for `Cc1nnc(-c2c(COC3CCOCC3)nc3c(c2-c2ccc(C(=O)NCc4ccc(F)c(F)c4)s2)C(=O)N2CCC[C@@H]32)o1` [Compound 26] here?
**A.** 1.6 µM

**Q.** `Cc1nnc(-c2c(CCC3CCC(F)(F)CC3)nc3c(c2-c2ccc(C(=O)NCc4ccc(F)c(F)c4)s2)C(=O)N2CCC[C@@H]32)o1` [Compound 27] was tested. Which EC50 did it give?
**A.** 0.174 µM

**Q.** Which EC50 does the source give for `Cc1nnc(-c2c(CCc3ccc(F)cc3)nc3c(c2-c2ccc(C(=O)N[C@@H]4CCc5ncccc54)s2)C(=O)N2CCC[C@@H]32)o1` [Compound 28] here?
**A.** 0.315 µM

**Q.** How did the EC50 turn out when `Cc1ncoc1-c1c(CCc2ccc(F)cc2)nc2c(c1-c1ccc(C(=O)NCc3ccc(F)c(F)c3)s1)C(=O)N1CCC[C@@H]21` [Compound 31, (S)—N-(3,4-difluorobenzyl)-5-(2-(4-fluorophenethyl)-3-(4-methyloxazol-5-yl)-5-oxo-7,8,9,9a-tetrahydro-5H-pyrido[2,3-a]pyrrolizin-4-yl)thiophene-2-carboxamide] was run?
**A.** 0.0412 µM

**Q.** Which EC50 does the source give for `Cc1nnc(-c2c(COc3ccc(F)cc3)nc3c(c2-c2ccc(C(=O)N[C@@H]4CCc5ncccc54)s2)C(=O)N2CCC[C@@H]32)o1` [Compound 32, N—[(R)-4-aza-1-indanyl]-5-{(2S)-11-[(p-fluorophenoxy)methyl]-10-(5-methyl-1,3,4-oxadiazol-2-yl)-7-oxo-6,12-diazatricyclo[6.4.0.0^2,6]dodeca-1(8),9,11-trien-9-yl}-2-thenamide] here?
**A.** 0.728 µM

**Q.** For `Cc1ncoc1-c1c(CCc2ccc(F)cc2)nc2c(c1-c1ccc(C(=O)NCc3ccc(F)c(F)c3)s1)S(=O)(=O)N1CCC[C@@H]21` [Compound 33, (S)—N-(3,4-difluorobenzyl)-5-(2-(4-fluorophenethyl)-3-(4-methyloxazol-5-yl)-5,5-dioxido-7,8,9,9a-tetrahydropyrrolo[1′,2′:2,3]isothiazolo[4,5-b]pyridin-4-yl)thiophene-2-carboxamide], which EC50 is on record?
**A.** 0.0525 µM

**Q.** `Cc1nc(C)c(-c2c(CCc3ccc(F)cc3)nc3c(c2-c2ccc(C(=O)NCc4ccc(F)c(F)c4)s2)C(=O)N2CCC[C@@H]32)o1` [Compound 34, (S)—N-(3,4-difluorobenzyl)-5-(3-(2,4-dimethyloxazol-5-yl)-2-(4-fluorophenethyl)-5-oxo-7,8,9,9a-tetrahydro-5H-pyrido[2,3-a]pyrrolizin-4-yl)thiophene-2-carboxamide] was tested. Which EC50 did it give?
**A.** 0.0205 µM
